{"source": "paper PMC2939729", "about": "(Cancer cell, 2010)", "key": {"BMK1 [1]": {"target": "T1, BMK1 (Homo sapiens, UniProt Q13164)", "assay": "A549 xenograft: BMK1 activation and p21 in tumor homogenates", "format": "in vivo", "conditions": "Nod/Scid mice, 50 mg/kg twice a day, 2 days"}, "HeLa cells": {"test_system": "HeLa cells", "assay": "HeLa cell proliferation, MTT assay", "format": "cell-based, human", "conditions": "5 μM, 48 hr, compared with Ad-BMK1(AEF)"}, "BMK1 [2]": {"target": "T1, BMK1", "assay": "in vitro kinase assay of BMK1 immunoprecipitated from HEK293 cells", "format": "biochemical", "conditions": "BMK1 immunoprecipitated from HEK293 co-transfected with MEK5D and BMK1"}, "[3]": {"assay": "Pharmacokinetics in Sprague-Dawley rats", "format": "in vivo", "conditions": "single oral dose of 2 mg/kg"}, "[4]": {"conditions": "mouse, in vivo, ip, 50 mg/kg"}, "DCAMKL1": {"target": "T2, DCAMKL1 (Homo sapiens, UniProt O15075)", "T2 sequence (O15075 1-740)": "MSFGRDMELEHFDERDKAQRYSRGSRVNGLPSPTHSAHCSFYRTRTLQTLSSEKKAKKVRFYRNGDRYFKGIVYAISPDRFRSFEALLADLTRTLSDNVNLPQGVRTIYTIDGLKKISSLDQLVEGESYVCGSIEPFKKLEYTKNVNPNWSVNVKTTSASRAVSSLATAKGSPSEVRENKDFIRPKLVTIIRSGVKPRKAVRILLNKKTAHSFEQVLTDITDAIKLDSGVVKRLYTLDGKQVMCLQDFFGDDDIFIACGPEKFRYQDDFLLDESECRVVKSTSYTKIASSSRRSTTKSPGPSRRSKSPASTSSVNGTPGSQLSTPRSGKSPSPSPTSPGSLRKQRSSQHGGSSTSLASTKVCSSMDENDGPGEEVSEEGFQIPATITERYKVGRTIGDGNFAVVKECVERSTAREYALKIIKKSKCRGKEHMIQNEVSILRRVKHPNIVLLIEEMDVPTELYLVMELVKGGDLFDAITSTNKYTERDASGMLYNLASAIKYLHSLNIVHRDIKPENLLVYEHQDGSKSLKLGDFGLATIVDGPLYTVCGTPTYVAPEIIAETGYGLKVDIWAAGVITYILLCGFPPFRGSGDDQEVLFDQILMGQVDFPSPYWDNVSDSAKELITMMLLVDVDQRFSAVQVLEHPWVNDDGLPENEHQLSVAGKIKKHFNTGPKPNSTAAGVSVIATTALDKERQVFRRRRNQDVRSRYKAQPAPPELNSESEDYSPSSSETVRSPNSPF", "assay": "in vitro ATP-site competition binding assay, panel of 402 kinases", "conditions": "10 μM inhibitor"}, "BMK1 [5]": {"target": "T1, BMK1", "assay": "in vitro ATP-site competition binding assay, panel of 402 kinases", "conditions": "10 μM inhibitor"}, "[6]": {"test_system": "BMK1-dependent transactivating activity of MEF2C", "assay": "Trans-reporter assay of BMK1-dependent MEF2C transactivating activity in HEK293", "format": "cell-based", "conditions": "HEK293, 5 μM for 16 hr, luciferase"}}, "data": [{"smiles": "CCOc1cc(N2CCC(O)CC2)ccc1Nc1ncc2c(n1)N(C)c1ccccc1C(=O)N2C", "note": "[XMD8-92]", "values": [{"measurement": "BMK1 activation in tumors", "setting": "BMK1 [1]", "result": "effectively inhibit"}, {"measurement": "p21 expression in tumors", "setting": "BMK1 [1]", "result": "induce"}, {"measurement": "extent of inhibition of proliferation", "setting": "HeLa cells", "result": "indistinguishable from that by dominant negative BMK1"}, {"measurement": "BMK1 activity in in vitro kinase assays", "setting": "BMK1 [2]", "result": "significantly reduced"}, {"measurement": "maximal plasma concentrations", "setting": "[3]", "result": "approximately 500 nM"}, {"measurement": "time of maximal plasma concentrations", "setting": "[3]", "result": "≤ 30", "unit": "min"}, {"measurement": "plasma concentration remaining 8 hr post dose", "setting": "[3]; 8 hr", "result": 34, "unit": "nM"}, {"measurement": "tolerability", "setting": "[4]", "result": "well tolerated"}, {"measurement": "displacement by XMD8-92", "setting": "DCAMKL1", "result": "greater than 90%"}, {"measurement": "displacement by XMD8-92", "setting": "BMK1 [5]", "result": "greater than 90%"}, {"measurement": "BMK1-dependent transactivating activity of MEF2C", "setting": "[6]", "result": "dramatically reduced"}]}]}
